Measured values published in patent US8586588B2, “Aryl pyridazinone derivatives and their use as H3 receptor ligands” (Cephalon, Inc., priority 2006, dated 2013).
Counter-ions that a name gives are not always drawn.

How the values were obtained:
human H3 receptor = target: T1, human H3 receptor (Homo sapiens, UniProt Q9Y5N1); test: Human H3 radioligand binding ([3H]-N-alpha-methylhistamine, CHO cell membranes, SPA); settings: Table B, binding constant as letter class
T1 construct: expressed in transfected cells
T1 sequence (Q9Y5N1 whole entry): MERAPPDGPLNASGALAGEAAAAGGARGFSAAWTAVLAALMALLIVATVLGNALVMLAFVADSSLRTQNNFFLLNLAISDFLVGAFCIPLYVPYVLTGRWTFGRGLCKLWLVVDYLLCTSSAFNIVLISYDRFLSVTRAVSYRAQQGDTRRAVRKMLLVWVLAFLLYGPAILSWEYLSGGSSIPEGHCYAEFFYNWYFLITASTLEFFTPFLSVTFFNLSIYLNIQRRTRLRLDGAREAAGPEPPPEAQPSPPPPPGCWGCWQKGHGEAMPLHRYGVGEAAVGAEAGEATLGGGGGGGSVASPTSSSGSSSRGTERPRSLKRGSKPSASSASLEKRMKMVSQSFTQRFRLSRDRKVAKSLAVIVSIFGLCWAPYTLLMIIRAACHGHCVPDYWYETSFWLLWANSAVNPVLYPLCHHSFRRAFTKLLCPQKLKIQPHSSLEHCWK
Summary of the method: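 CHO cell membranes expressing human H3 (10 μg protein/well) incubated 4 h at room temperature, in the dark, with ~1 nM [3H]-N-alpha-methylhistamine, compounds (0.01 nM-30 μM) and SPA beads in 50 mM Tris HCl pH 7.4, 5 mM MgCl2, 0.1% BSA. Non-specific binding defined with 10 μM clobenpropit.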

[1] = target: T2, rat histamine H3 receptor (Rattus norvegicus, UniProt Q9QYN8); test: Rat H3 radioligand binding ([3H]-N-alpha-methylhistamine, CHO-A3 cell membranes, SPA); settings: Table B, binding constant as letter class; read-out: rat H3 Ki
T2 construct: encoding the entire 445-amino-acid rat histamine H3 receptor; expressed in transfected cells
T2 sequence (Q9QYN8 whole entry): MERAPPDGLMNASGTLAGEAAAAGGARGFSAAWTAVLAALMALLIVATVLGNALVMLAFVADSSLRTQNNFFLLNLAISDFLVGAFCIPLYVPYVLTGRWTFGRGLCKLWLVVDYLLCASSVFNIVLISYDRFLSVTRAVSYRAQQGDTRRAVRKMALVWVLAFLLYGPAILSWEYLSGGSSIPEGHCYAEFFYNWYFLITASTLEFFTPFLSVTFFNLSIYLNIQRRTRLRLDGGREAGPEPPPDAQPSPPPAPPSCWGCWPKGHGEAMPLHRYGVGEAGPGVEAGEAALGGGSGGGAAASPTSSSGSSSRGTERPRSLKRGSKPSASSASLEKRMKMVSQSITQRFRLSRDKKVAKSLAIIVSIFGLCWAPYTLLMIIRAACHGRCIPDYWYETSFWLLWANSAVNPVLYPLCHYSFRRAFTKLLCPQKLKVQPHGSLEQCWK
Summary of the method: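 Membranes from CHO-A3 cells stably expressing rat H3 (10 μg protein) incubated 4 h at room temperature in 50 mM Tris-HCl pH 7.4, 5 mM MgCl2, 0.1% BSA with ~1 nM [3H]-N-alpha-methylhistamine and compound (0.01 nM-30 μM). Bound radioligand read by scintillation proximity; nonspecific binding with 10 μM clobenpropit.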

SMILES | Ki (human H3 receptor) [nM] | Ki [1] [nM]
CC1CC(=O)N(c2ccccn2)N=C1c1ccc(OC2CCN(C3CCC3)CC2)cc1 (stereo not drawn) [Example 193, 6-[4-(1-Cyclobutyl-piperidin-4-yloxy)-phenyl]-5-methyl-2-pyridin-2-yl-4,5-dihydro-2H-pyridazin-3-one] | 0.1 to 100 | 0.1 to 100
Cc1cc(OCCCN2CCC[C@H]2C)ccc1C1=NNC(=O)CC1 [Example 199, 6-{(R)-2-Methyl-4-[3-(2-methyl-pyrrolidin-1-yl)-propoxy]-phenyl}-4,5-dihydro-2H-pyridazin-3-one] | 0.1 to 100 | 0.1 to 100
Cc1ccc(=O)n(-c2ccc(OCCCN3CCC[C@H]3C)cc2)n1 [Example 201, 6-Methyl-2-{4-[3-((R)-2-methyl-pyrrolidin-1-yl)-propoxy]-phenyl}-2H-pyridazin-3-one] | 0.1 to 100 | 101 to 500
O=c1ccc(-c2ccccc2)nn1-c1ccc(OC2CCN(C3CCC3)CC2)nc1 [Example 203, 2-[6-(1-Cyclobutyl-piperidin-4-yloxy)-pyridin-3-yl]-6-phenyl-2H-pyridazin-3-one] | 0.1 to 100 | 0.1 to 100
Cc1onc2c(=O)[nH]nc(-c3ccc(OC4CCN(C5CCC5)CC4)cc3)c12 [Example 205, 4-[4-(1-Cyclobutyl-piperidin-4-yloxy)-phenyl]-3-methyl-6H-isoxazolo[3,4-d]pyridazin-7-one] | 101 to 500 | 101 to 500
Cc1onc2c(=O)[nH]nc(-c3ccc(OC4CCNCC4)cc3)c12 [Example 206, 3-methyl-4-[4-(piperidin-4-yloxy)phenyl]-6h-isoxazolo-[3,4-d]pyridazin-7-one TFA salt] | > 1000 | > 1000
C[C@@H]1CCCN1CCCOc1ccc2c(c1)CCc1cc(=O)[nH]nc1-2 [Example 209, 8-[3-((R)-2-Methyl-pyrrolidin-1-yl)-propoxy]-5,6-dihydro-2H-benzo[h]cinnolin-3-one] | 0.1 to 100 | 0.1 to 100
C[C@@H]1CCCN1CCCOc1ccc2c(c1)CCC1CC(=O)NN=C21 (stereo partly drawn) [Example 212, 8-[3-(2-Methyl-pyrrolidin-1-yl)-propoxy]-4,4a,5,6-tetrahydro-2H-benzo[h]cinnolin-3-one] | 0.1 to 100 | 0.1 to 100
COc1cc(OCCCN2CCC[C@H]2C)ccc1-c1ccc(=O)[nH]n1 [Example 213, 6-{2-Methoxy-4-[3-((R)-2-methyl-pyrrolidin-1-yl)-propoxy]-phenyl}-2H-pyridazin-3-one] | 101 to 500 | 101 to 500
C[C@@H]1CCCN1CCCOc1ccc(-c2ccc(=O)n(-c3ccccn3)n2)cc1 [Example 215, 6-{4-[3-((R)-2-Methyl-pyrrolidin-1-yl)-propoxy]-phenyl}-2-pyridin-2-yl-2H-pyridazin-3-one] | 0.1 to 100 | 0.1 to 100
C[C@@H]1CCCN1CCCOc1ccc(C2=NNC(=O)C(c3ccccn3)C2)cc1 (stereo partly drawn) [Example 216, 6-{4-[3-((R)-2-Methyl-pyrrolidin-1-yl)-propoxy]-phenyl}-4-pyridin-2-yl-4,5-dihydro-2H-pyridazin-3-one] | 0.1 to 100 | 0.1 to 100
C[C@@H]1CCCN1CCCOc1ccc(-c2cc(-c3ccccn3)c(=O)[nH]n2)cc1 [Example 217, 6-{4-[3-((R)-2-Methyl-pyrrolidin-1-yl)-propoxy]-phenyl}-4-pyridin-2-yl-2H-pyridazin-3-one] | 0.1 to 100 | 0.1 to 100
C[C@@H]1CCCN1CCCOc1ccc2c(c1)CCc1n[nH]c(=O)cc1-2 [Example 218, 8-[3-((R)-2-Methyl-pyrrolidin-1-yl)-propoxy]-5,6-dihydro-3H-benzo[f]cinnolin-2-one] | 0.1 to 100 | 0.1 to 100
O=C1CCC(c2ccc(OC3CCN(C4CCC4)CC3)cc2F)=NN1 [Example 219, 6-[4-(1-Cyclobutyl-piperidin-4-yloxy)-2-fluoro-phenyl]-4,5-dihydro-2H-pyridazin-3-one] | 0.1 to 100 | 0.1 to 100
C[C@@H]1CCCN1CCCOc1ccc(-c2cn[nH]c(=O)c2)cc1 [Example 223, 5-{4-[3-((R)-2-Methyl-pyrrolidin-1-yl)-propoxy]-phenyl}-2H-pyridazin-3-one] | 0.1 to 100 | 0.1 to 100
